Measurements from patent US6358885B1, “Substituted phenylheterocyclic herbicides” (Mississippi State University, priority 1992, dated 2002).

What was measured:
Experiment in all cases: Test B preemergence/postemergence greenhouse plant response rating 0 to 10
Settings in all cases: 0 to 10 scale
barley = format: in vivo, Hordeum vulgare
Summary of the method: (§1)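 Postemergence treatment of plants two to eighteen cm tall ran alongside preemergence treatment of planted seed, each using compound in a non-phytotoxic solvent.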

barnyardgrass = format: in vivo, Echinochloa crus-galli
Summary of the method: as §1

bedstraw = format: in vivo, Galium aparine
Summary of the method: as §1

blackgrass = format: in vivo, Alopecurus myosuroides
Summary of the method: as §1

cheatgrass = format: in vivo, Bromus secalinus
Summary of the method: as §1

chickweed = format: in vivo, Stellaria media
Summary of the method: as §1

cocklebur = format: in vivo, Xanthium pensylvanicum
Summary of the method: as §1

corn = format: in vivo, Zea mays
Summary of the method: as §1

cotton = format: in vivo, Gossypium hirsutum
Summary of the method: as §1

crabgrass = format: in vivo, Digitaria spp.
Summary of the method: as §1

giant foxtail = format: in vivo, Setaria faberii
Summary of the method: as §1

lambsquarters = format: in vivo, Chenopodium album
Summary of the method: as §1

morningglory = format: in vivo, Ipomoea hederacea
Summary of the method: as §1

rape = format: in vivo, Brassica napus
Summary of the method: as §1

rice = format: in vivo, Oryza sativa
Summary of the method: as §1

sorghum = format: in vivo, Sorghum bicolor
Summary of the method: as §1

soybean = format: in vivo, Glycine max
Summary of the method: as §1

sugar beet = format: in vivo, Beta vulgaris
Summary of the method: as §1

velvetleaf = format: in vivo, Abutilon theophrasti
Summary of the method: as §1

wheat = format: in vivo, Triticum aestivum
Summary of the method: as §1

wild buckwheat = format: in vivo, Polygonum convolvulus
Summary of the method: as §1

wild oat = format: in vivo, Avena fatua
Summary of the method: as §1

purple nutsedge = format: in vivo, Cyperus rotundus
Summary of the method: as §1

CC(C#N)Oc1cc(-c2nn3c(c2Cl)CCCC3)c(F)cc1Cl (centres unmarked) [Compound 60]
Plant response rating, Barley (barley; POSTEMERGENCE, Rate 10 g/ha): 3 | Plant response rating, Barley (barley; POSTEMERGENCE, Rate 50 g/ha): 4 | Plant response rating, Barley (barley; PREEMERGENCE, Rate 10 g/ha): 0 | Plant response rating, Barley (barley; PREEMERGENCE, Rate 50 g/ha): 0 | Plant response rating, Barnyardgrass (barnyardgrass; POSTEMERGENCE, Rate 10 g/ha): 3 | Plant response rating, Barnyardgrass (barnyardgrass; POSTEMERGENCE, Rate 50 g/ha): 4 | Plant response rating, Barnyardgrass (barnyardgrass; PREEMERGENCE, Rate 10 g/ha): 0 | Plant response rating, Barnyardgrass (barnyardgrass; PREEMERGENCE, Rate 50 g/ha): 0 | Plant response rating, Bedstraw (bedstraw; POSTEMERGENCE, Rate 10 g/ha): 7 | Plant response rating, Bedstraw (bedstraw; POSTEMERGENCE, Rate 50 g/ha): 9 | Plant response rating, Bedstraw (bedstraw; PREEMERGENCE, Rate 50 g/ha): 6 | Plant response rating, Blackgrass (blackgrass; POSTEMERGENCE, Rate 10 g/ha): 3 | Plant response rating, Blackgrass (blackgrass; POSTEMERGENCE, Rate 50 g/ha): 3 | Plant response rating, Blackgrass (blackgrass; PREEMERGENCE, Rate 10 g/ha): 0 | Plant response rating, Blackgrass (blackgrass; PREEMERGENCE, Rate 50 g/ha): 0 | Plant response rating, Cheatgrass (cheatgrass; POSTEMERGENCE, Rate 10 g/ha): 3 | Plant response rating, Cheatgrass (cheatgrass; POSTEMERGENCE, Rate 50 g/ha): 3 | Plant response rating, Cheatgrass (cheatgrass; PREEMERGENCE, Rate 10 g/ha): 0 | Plant response rating, Cheatgrass (cheatgrass; PREEMERGENCE, Rate 50 g/ha): 2 | Plant response rating, Chickweed (chickweed; POSTEMERGENCE, Rate 10 g/ha): 3 | Plant response rating, Chickweed (chickweed; POSTEMERGENCE, Rate 50 g/ha): 7 | Plant response rating, Chickweed (chickweed; PREEMERGENCE, Rate 50 g/ha): 4 | Plant response rating, Cocklebur (cocklebur; POSTEMERGENCE, Rate 10 g/ha): 6 | Plant response rating, Cocklebur (cocklebur; POSTEMERGENCE, Rate 50 g/ha): 8 | Plant response rating, Cocklebur (cocklebur; PREEMERGENCE, Rate 10 g/ha): 0 | Plant response rating, Cocklebur (cocklebur; PREEMERGENCE, Rate 50 g/ha): 0 | Plant response rating, Corn (corn; POSTEMERGENCE, Rate 10 g/ha): 3 | Plant response rating, Corn (corn; POSTEMERGENCE, Rate 50 g/ha): 3 | Plant response rating, Corn (corn; PREEMERGENCE, Rate 50 g/ha): 0 | Plant response rating, Cotton (cotton; POSTEMERGENCE, Rate 10 g/ha): 9 | Plant response rating, Cotton (cotton; POSTEMERGENCE, Rate 50 g/ha): 10 | Plant response rating, Cotton (cotton; PREEMERGENCE, Rate 10 g/ha): 0 | Plant response rating, Cotton (cotton; PREEMERGENCE, Rate 50 g/ha): 5 | Plant response rating, Crabgrass (crabgrass; POSTEMERGENCE, Rate 10 g/ha): 2 | Plant response rating, Crabgrass (crabgrass; POSTEMERGENCE, Rate 50 g/ha): 2 | Plant response rating, Crabgrass (crabgrass; PREEMERGENCE, Rate 10 g/ha): 0 | Plant response rating, Crabgrass (crabgrass; PREEMERGENCE, Rate 50 g/ha): 0 | Plant response rating, Giant foxtail (giant foxtail; POSTEMERGENCE, Rate 10 g/ha): 3 | Plant response rating, Giant foxtail (giant foxtail; POSTEMERGENCE, Rate 50 g/ha): 4 | Plant response rating, Giant foxtail (giant foxtail; PREEMERGENCE, Rate 10 g/ha): 0 | Plant response rating, Giant foxtail (giant foxtail; PREEMERGENCE, Rate 50 g/ha): 2 | Plant response rating, Lambsquarter (lambsquarters; POSTEMERGENCE, Rate 10 g/ha): 10 | Plant response rating, Lambsquarter (lambsquarters; POSTEMERGENCE, Rate 50 g/ha): 10 | Plant response rating, Lambsquarter (lambsquarters; PREEMERGENCE, Rate 50 g/ha): 9 | Plant response rating, Morningglory (morningglory; POSTEMERGENCE, Rate 10 g/ha): 7 | Plant response rating, Morningglory (morningglory; POSTEMERGENCE, Rate 50 g/ha): 7 | Plant response rating, Morningglory (morningglory; PREEMERGENCE, Rate 50 g/ha): 3 | Plant response rating, Rape (rape; POSTEMERGENCE, Rate 10 g/ha): 6 | Plant response rating, Rape (rape; POSTEMERGENCE, Rate 50 g/ha): 10 | Plant response rating, Rape (rape; PREEMERGENCE, Rate 50 g/ha): 6 | Plant response rating, Rice (rice; POSTEMERGENCE, Rate 10 g/ha): 3 | Plant response rating, Rice (rice; POSTEMERGENCE, Rate 50 g/ha): 4 | Plant response rating, Rice (rice; PREEMERGENCE, Rate 50 g/ha): 1 | Plant response rating, Sorghum (sorghum; POSTEMERGENCE, Rate 10 g/ha): 3 | Plant response rating, Sorghum (sorghum; POSTEMERGENCE, Rate 50 g/ha): 3 | Plant response rating, Sorghum (sorghum; PREEMERGENCE, Rate 50 g/ha): 2 | Plant response rating, Soybean (soybean; POSTEMERGENCE, Rate 10 g/ha): 6 | Plant response rating, Soybean (soybean; POSTEMERGENCE, Rate 50 g/ha): 4 | Plant response rating, Soybean (soybean; PREEMERGENCE, Rate 50 g/ha): 0 | Plant response rating, Sugar beet (sugar beet; POSTEMERGENCE, Rate 10 g/ha): 10 | Plant response rating, Sugar beet (sugar beet; POSTEMERGENCE, Rate 50 g/ha): 10 | Plant response rating, Sugar beet (sugar beet; PREEMERGENCE, Rate 50 g/ha): 9 | Plant response rating, Velvetleaf (velvetleaf; POSTEMERGENCE, Rate 10 g/ha): 7 | Plant response rating, Velvetleaf (velvetleaf; POSTEMERGENCE, Rate 50 g/ha): 8 | Plant response rating, Velvetleaf (velvetleaf; PREEMERGENCE, Rate 50 g/ha): 6 | Plant response rating, Wheat (wheat; POSTEMERGENCE, Rate 10 g/ha): 3 | Plant response rating, Wheat (wheat; POSTEMERGENCE, Rate 50 g/ha): 4 | Plant response rating, Wheat (wheat; PREEMERGENCE, Rate 50 g/ha): 2 | Plant response rating, Wild buckwheat (wild buckwheat; POSTEMERGENCE, Rate 10 g/ha): 9 | Plant response rating, Wild buckwheat (wild buckwheat; POSTEMERGENCE, Rate 50 g/ha): 10 | Plant response rating, Wild buckwheat (wild buckwheat; PREEMERGENCE, Rate 50 g/ha): 7 | Plant response rating, Wild oat (wild oat; POSTEMERGENCE, Rate 10 g/ha): 2 | Plant response rating, Wild oat (wild oat; POSTEMERGENCE, Rate 50 g/ha): 4 | Plant response rating, Wild oat (wild oat; PREEMERGENCE, Rate 50 g/ha): 3 | Plant response rating, Nutsedge (purple nutsedge; POSTEMERGENCE, Rate 10 g/ha): 1 | Plant response rating, Nutsedge (purple nutsedge; POSTEMERGENCE, Rate 50 g/ha): 2 | Plant response rating, Nutsedge (purple nutsedge; PREEMERGENCE, Rate 50 g/ha): 0
